Measurements published in US4016158A, “Cephalosporin derivatives” (Roussel-UCLAF, priority 1971, dated 1977).
In brackets after ≈: the same amount, converted by molar mass. Like-named read-outs stand apart in the source and are kept apart here.

Tests used:
solubility = format: physicochemical
[1] = tested on: Strept. hemoly. Todd Hewitt; experiment: MIC, diffusion method in gelose medium at pH 7 (Table I); format: cell-based
Experimental: (§1) The antibiotic activity was determined by the diffusion method in a gelose medium at a pH of 7. The following Table expresses the minimum concentration of inhibition in mcg/ml (CMl) for the products against different microbial strains.

Bac. Subt. = experiment: as above; format: cell-based
Experimental: as §1

Escher. Coli UC 1261 = experiment: as above; format: cell-based; conditions: Escherichia coli
Experimental: as §1

[2] = tested on: Staph. aureus oxford U.C. 1061 P(+); experiment: as above; format: cell-based; conditions: Staphylococcus aureus
Experimental: as §1

Strept. Fecalis 5432 = experiment: as above; format: cell-based
Experimental: as §1

Escher. Coli UC 1020 = experiment: as above; format: cell-based; conditions: Escherichia coli
Experimental: as §1

Pseudomonas = experiment: as above; format: cell-based; conditions: read-out: minimum concentration of inhibition
Experimental: as §1

[3] = tested on: certain gram negative bacteria, particularly coliform bacteria; experiment: antibacterial activity, statement
Staph. U.C. 1128 P(-) = experiment: MIC, diffusion method in gelose medium at pH 7 (Table I); format: cell-based; conditions: Staph. UC 1128, penicillin resistant, read-out: minimum concentration of inhibition
Experimental: as §1

[4] = tested on: gram positive bacteria such as staphylococci and streptococci; experiment: antibacterial activity, statement; conditions: particularly penicillin resistant staphylococci
[5] = tested on: Staphylococcus aureus A8P; experiment: MIC (Table II); format: cell-based; conditions: read-out: minimum inhibition concentration
Experimental: as §1
(§2) Using the same procedure as in Table I, the minimum inhibition concentration in mcg/ml was determined against different microbial strains with L(-) cis 7-[D(-)-α-aminophenylacetamido]-3-isopropyl-3-cepheme-4-carboxylic acid (product A) of Example 9.

[6] = tested on: Staphylococcus aureus 9373; experiment: MIC (Table II); format: cell-based; conditions: read-out: minimum inhibition concentration
Experimental: as §1, §2

[7] = tested on: Staphylococcus aureus 9729; experiment: MIC (Table II); format: cell-based; conditions: read-out: minimum inhibition concentration
Experimental: as §1, §2

[8] = tested on: Staphylococcus aureus 9482; experiment: MIC (Table II); format: cell-based; conditions: read-out: minimum inhibition concentration
Experimental: as §1, §2

[9] = tested on: Staphylococcus aureus 889; experiment: MIC (Table II); format: cell-based; conditions: read-out: minimum inhibition concentration
Experimental: as §1, §2

[10] = tested on: Staphylococcus aureus 4546; experiment: MIC (Table II); format: cell-based; conditions: read-out: minimum inhibition concentration
Experimental: as §1, §2

[11] = Strept. hemoly. Todd Hewitt, pH 7, read-out: minimum concentration of inhibition
[12] = Bac. Subt., pH 7, read-out: minimum concentration of inhibition
[13] = UC1261, Escher. Coli UC 1261, pH 7, read-out: minimum concentration of inhibition
[14] = UC1061, Staph. aureus oxford UC 1061, penicillin sensitive, pH 7, read-out: minimum concentration of inhibition
[15] = Strept. Fecalis 5432, pH 7, read-out: minimum concentration of inhibition
[16] = UC1020, Escher. Coli UC 1020, pH 7, read-out: minimum concentration of inhibition
[17] = pH 7, read-out: minimum concentration of inhibition

Structure (SMILES)	solubility in ethanol (solubility)	solubility in ether (solubility)	solubility in water (solubility)	MIC [1, 11]	MIC (Bac. Subt.; [12])	MIC (Escher. Coli UC 1261; [13])	MIC [2, 14]	MIC (Strept. Fecalis 5432; [15])	MIC (Escher. Coli UC 1020; [16])	MIC (Pseudomonas)	MIC (Staph. U.C. 1128 P(-))	also measured
Nc1ccc(CC(=O)NC2C(=O)N3C(C(=O)O)=C(C4CCCC4)CSC23)cc1 (stereo not drawn) [Example 12, DL cis 7-p-aminophenylacetamido-3-cyclopentyl-3-cepheme-4-carboxylic acid]	soluble	insoluble	slightly soluble	–	–	–	–	–	–	–	–	–
CC(C)C1=C(C(=O)O)N2C(=O)[C@@H](NC(=O)Cc3ccc(N)cc3)[C@H]2SC1 (relative stereo) [Example 7, DL cis 7-p-aminophenylacetamido-3-isopropyl-3-cepheme-4-carboxylic acid]	slightly soluble	insoluble	slightly soluble	10 µg/mL (≈ 26.6 µM)	0.05 µg/mL (≈ 0.133 µM)	> 200 µg/mL	2 µg/mL (≈ 5.33 µM)	> 40 µg/mL	> 200 µg/mL	> 200 µg/mL	–	solubility in chloroform (solubility; chloroform): slightly soluble
O=C(Cc1cccs1)NC1C(=O)N2C(C(=O)O)=C(C3CCCC3)CSC12 (stereo not drawn) [Example 13, DL cis 7-(2'-thienyl)-acetamido-3-cyclopentyl-3-cepheme-4-carboxylic acid]	–	insoluble	slightly soluble	> 40 µg/mL	1 µg/mL (≈ 2.55 µM)	–	1 µg/mL (≈ 2.55 µM)	20 µg/mL (≈ 51 µM)	–	–	–	–
N[C@@H](C(=O)N[C@@H]1C(=O)N2C(C(=O)O)=C(C3CCCC3)CS[C@H]12)c1ccccc1 [Example 10, L(+) 6R, 7R 7-[R(-)-α-aminophenylacetamido]-3-cyclopentyl-3-cepheme-4-carboxylicacid]	slightly soluble	insoluble	slightly soluble	10 µg/mL (≈ 24.9 µM)	0.05 µg/mL (≈ 0.125 µM)	–	0.4 µg/mL (≈ 0.996 µM)	20 µg/mL (≈ 49.8 µM)	–	–	1 µg/mL (≈ 2.49 µM)	activity against certain gram negative bacteria [3]: active; activity against gram positive bacteria [4]: active
O=C(Cc1ccc([N+](=O)[O-])cc1)NC1C(=O)N2C(C(=O)O)=C(C3CCCC3)CSC12 (stereo not drawn) [Example 11, DL cis 7-p-nitrophenylacetamido-3-cyclopentyl-3-cepheme-4-carboxylic acid]	slightly soluble	insoluble	insoluble	> 40 µg/mL	0.1 µg/mL (≈ 0.232 µM)	–	0.2 µg/mL (≈ 0.464 µM)	> 40 µg/mL	–	–	0.4 µg/mL (≈ 0.927 µM)	–
CC1=C(C(=O)O)N2C(=O)[C@@H](NC(=O)[C@H](N)c3ccccc3)[C@H]2SC1 [Cephalexin, reference compound]	–	–	–	–	–	–	–	–	–	–	10 µg/mL (≈ 28.8 µM)	MIC ([5]; 24 h): 2 µg/mL (≈ 5.76 µM); MIC ([5]; 48 h): 5 µg/mL (≈ 14.4 µM); MIC ([6]; Staphylococcus aureus, 9373, 24 h): 2 µg/mL (≈ 5.76 µM); MIC ([6]; Staphylococcus aureus, 9373, 48 h): 3 µg/mL (≈ 8.64 µM); MIC ([7]; Staphylococcus aureus, 9729, 24 h): 2 µg/mL (≈ 5.76 µM); MIC ([7]; Staphylococcus aureus, 9729, 48 h): 3 µg/mL (≈ 8.64 µM); MIC ([8]; Staphylococcus aureus, 9482, 24 h): 1 µg/mL (≈ 2.88 µM); MIC ([8]; Staphylococcus aureus, 9482, 48 h): 1 µg/mL (≈ 2.88 µM); MIC ([9]; Staphylococcus aureus, 889, 24 h): 5 µg/mL (≈ 14.4 µM); MIC ([9]; Staphylococcus aureus, 889, 48 h): 10 µg/mL (≈ 28.8 µM); MIC ([10]; Staphylococcus aureus, 4546, 24 h): 1 µg/mL (≈ 2.88 µM); MIC ([10]; Staphylococcus aureus, 4546, 48 h): 3 µg/mL (≈ 8.64 µM); MIC [1, 17]: 10 µg/mL (≈ 28.8 µM); MIC (Bac. Subt.; [17]): 0.2 µg/mL (≈ 0.576 µM); MIC (Escher. Coli UC 1261; UC1261, pH 7, read-out: minimum concentration of inhibition): 20 µg/mL (≈ 57.6 µM); MIC ([2]; UC1061, pH 7, read-out: minimum concentration of inhibition): 2 µg/mL (≈ 5.76 µM); MIC (Strept. Fecalis 5432; [17]): 60 µg/mL (≈ 173 µM); MIC (Escher. Coli UC 1020; UC1020, pH 7, read-out: minimum concentration of inhibition): 20 µg/mL (≈ 57.6 µM)
CC(C)C1=C(C(=O)O)N2C(=O)[C@@H](NC(=O)Cc3cccs3)[C@H]2SC1 (relative stereo) [Example 8, DL cis 7-(2'-thienyl)-acetamido-3-isopropyl-3-cepheme-4-carboxylic acid]	slightly soluble	–	insoluble	10 µg/mL (≈ 27.3 µM)	0.4 µg/mL (≈ 1.09 µM)	> 200 µg/mL	2 µg/mL (≈ 5.46 µM)	> 40 µg/mL	> 200 µg/mL	> 200 µg/mL	5 µg/mL (≈ 13.6 µM)	solubility in methanol (solubility; methanol): soluble
CC(C)C1=C(C(=O)O)N2C(=O)[C@@H](NC(=O)Cc3ccc([N+](=O)[O-])cc3)[C@H]2SC1 (relative stereo) [Example 6, DL cis 7-p-nitrophenylacetamido-3-isopropyl-3-cepheme-4-carboxylic acid]	slightly soluble	–	insoluble	5 µg/mL (≈ 12.3 µM)	0.2 µg/mL (≈ 0.493 µM)	> 200 µg/mL	0.4 µg/mL (≈ 0.987 µM)	> 40 µg/mL	> 200 µg/mL	> 200 µg/mL	2 µg/mL (≈ 4.93 µM)	–
